Assays:
[1] = tested on: tumor-infiltrating and spleen macrophages (F4/80+), T and NK cells; test: Immunohistochemistry of Renca tumors and spleen, Balb/c mice; settings: mouse, in vivo
Procedure: Major internal organs and Renca tumors harvested from mice were fixed in 10% formalin or snap frozen in liquid nitrogen. H & E-stained tissue sections of the fixed samples were prepared and evaluated by microscopy as described previously (Yi, T., M. K. Pathak, D. J. Lindner, M. E. Ketterer, C. Farver, and E. C. Borden. 2002. Anticancer activity of sodium stibogluconate in synergy with IFNs. J Immunol 169:5978). Preparation of frozen tissue sections and immunohistochemistry were performed following established procedures (Joliat, M. J., P. A. Lang, B. L. Lyons, L. Burzenski, M. A. Lynes, T. Yi, J. P. Sundberg, and L. D.
The sections were counterstained with Mayer's hematoxylin prior to microscopic examination. Tissue sections of 2 mice/group were evaluated. The number of immune cells was semi-quantified based on the following scheme: +, 0-1 positive cells/40×field; +, 2-5 positive cells/40×field; ++, 6-10 positive cells/40×field, etc.

PTP1B = molecular target: T1, PTP1B (Homo sapiens, UniProt P18031); test: In vitro PTPase assay, GST/PTP1B; type: biochemical; settings: 0.1 to 1 μg/ml
T1 construct: purchased Upstate Biotechnology Inc. (Lake Placid, N.Y.)
Procedure: In vitro PTPase activities were measured using the commercial protein tyrosine phosphatase assay kit (Upstate Biotechnology, Inc. (“UBI”)) following established procedure known to one of skill in the art. This assay measures the in vitro dephosphorylation of a synthetic phosphotyrosine peptide of the sequence Arg-Arg-Leu-Ile-Glu-Asp-Ala-Gle-T- -yr-Ala-Ala-Arg-Gly, wherein the tyrosine is phosphorylated (SEQ ID NO: 3). Briefly, 0.01 µg of GST/PTPase fusion proteins was incubated in 50 µl of Tris buffer (10 mM Tris, pH 7.4) containing different concentrations of inhibitors or chemicals (0-1,000 µg/ml) at 22° C. for 10 minutes, followed by addition of 0.2 mM of the phosphotyrosine peptide and incubation at 22° C. for 18 hours. 100 µl of Malachite Green solution was added and incubated for 5 minutes, and the absorbance at 660 nm was measured after 5 minutes.
In vitro PTPase assays were used to determine the effects of levamisole (Sigma), pentamidine (American Pharmaceutical Partners, Inc.), and ketoconazole (Sigma) on recombinant PTPases, following established procedures (Pathak et al., J. Imumol. 167, 3391 (2001); Pathak et al., Leukemia 16, 2285 (2002), Yi et al., J. Immunol. 169, 5978 (2002)) using a synthetic phosphotyrosine peptide or DiFMUP as the substrate as detailed above in section I.A.2.

WM35 cells = test: WM35 melanoma cell growth; type: cell-based, human
Procedure: For cell proliferation assays, cells were grown in 10% FCS culture medium containing various amounts of IFNs and/or sodium stibogluconate in 96 well plates and cultured at 37° C. for 3 or 6 days as indicated. The numbers of viable cells in proliferation assays were determined by MTT assays as described in Phatak et al., J. Immunol. 167, 3391 (2001).

[2] = cited from earlier work
NB4 cells [3] = test: NB4 cell cycle analysis and Annexin V/propidium iodide assay; type: cell-based, human
Procedure: […] Briefly, the cells were fixed in cold ethanol and incubated for 30 minutes at 4° C. in the dark with a solution of […], 1 mg/ml RNase and 0.1% NP-40. Analysis was performed immediately after staining using the CELLFIT program (Becton Dickinson, Mountain View, Calif.).
] Annexin V staining of exposed membrane phospholipid phosphatidylserine (PS) was done using the Annexin V assay kit (Pharmingen, San Diego, Calif.). Briefly, NB4 cells were cultured in the 10% FCS RPMI 1640 medium in the absence or presence of sodium stibogluconate (250 µg/ml) or ATRA (1 µM) for 3 days. Cells were then washed in PBS twice and stained in binding buffer (10 mM Hepes, pH 7.4; 140 mM NaCl; 2.5 mM CaCl2) containing Annexin V-FITC and propidium iodide for 15 min. The reaction was stopped by adding 10 volumes of binding buffer and analyzed by FACS (Becton Dickinson Facsvantage).

NB4 cells [4] = test: NB4 differentiation (NBT reduction, CD11b); type: cell-based, human; settings: 6 days with drug (10 or 100 μg/ml), washed, 6 days without
Procedure: Differentiation of AML cell lines was assessed by their ability to produce superoxide as measured by reduction of NBT to formazan and by analysis of expression of CD11b surface marker by flow cytometry. For NBT reduction, each cell suspension was mixed with an equal volume of solution containing 1 mg/ml of NBT (Sigma) and 2.5 µg/ml of TPA for 30 minutes at 37° C. After incubation, cells containing the purple formazan deposits and cells devoid of NBT-reducing activity (white cells) in each sample were determined by counting 200 cells under microscope. Data is expressed as a percentage based on the following ratio: purple cells/purple+white cells. For analysis of cell surface antigens, cells were exposed to phycoerythrin (PE)-conjugated murine anti-human CD11b (DAKO Corp., Carpinteria, Calif.). Analysis of fluorescence was performed on a FACScan flow cytometer (Beckton Dickinson, Mountain View, Calif.).

TF-1 cells = test: TF-1 cell proliferation assay; type: cell-based, human
Procedure: The murine hematopoietic cell line Baf3 was maintained in RPMI 1640 medium supplemented with 10% fetal calf serum (FCS) and murine IL-3 (20 units/ml) as described previously in Damen et al., J. Biol. Chem. 270, 23402 (1995). Human myeloid cell line TF-1 was maintained in RPMI 1640 supplemented with 10% FCS and 40 ng/ml of recombinant human GM-CSF as described previously in Thomassen et al., Clin. Immunol. 95, 85 (2000). For cell proliferation assays, cells were washed in 10% FCS medium twice, resuspended in 10% FCS medium, incubated at 37° C. for 16 hours, and then cultured at 37° C. in 10% FCS medium containing various amounts of cytokines, sodium stibogluconate, or potassium antimonyl tartrate for 3-6 days as indicated. The cell numbers in proliferation assays were determined by an MTT assay or by microscopic cell counting as indicated.

DU145 tumors = DU145 tumors in athymic nude mice, sodium stibogluconate alone; settings: mouse, in vivo
Procedure: Athymic nude mice (nu/nu, NCR), 4 weeks old (Taconic), were inoculated (s.c.) in the flanks with DU145 cells (3×10^6 cells/site) on day 0, Starting on day 2, the mice were subjected to no treatment (Control) or treatment with sodium stibogluconate (12 mg, […], daily, i.m., at the hip area). The dosage of sodium stibogluconate used in the study was similar to the effective daily dose of sodium stibogluconate for the treatment of murine leishmaniasis (Murray, et al. 1988). Tumor volume was measured and calculated using the formula for a prolate spheroid (V=4/3 7 a^2b) (Lindner, et al. 1997). Hematoxylin+Eosin (H.E.) stained tissue sections of internal organs and tumor inoculation sites tissues of the mice were prepared and subjected microscopic evaluation.
Nude mice were inoculated with DU145 cells sub-cutaneously at the shoulder area. Two days after inoculation when tumors were visible, the mice were subjected to no treatment (control) or sodium stibogluconate treatment (daily injection of 440 mg/kg, intermuscular at the hip area). […] Histology of their major organs was unremarkable.

T1 sequence (P18031 whole entry, species assumed): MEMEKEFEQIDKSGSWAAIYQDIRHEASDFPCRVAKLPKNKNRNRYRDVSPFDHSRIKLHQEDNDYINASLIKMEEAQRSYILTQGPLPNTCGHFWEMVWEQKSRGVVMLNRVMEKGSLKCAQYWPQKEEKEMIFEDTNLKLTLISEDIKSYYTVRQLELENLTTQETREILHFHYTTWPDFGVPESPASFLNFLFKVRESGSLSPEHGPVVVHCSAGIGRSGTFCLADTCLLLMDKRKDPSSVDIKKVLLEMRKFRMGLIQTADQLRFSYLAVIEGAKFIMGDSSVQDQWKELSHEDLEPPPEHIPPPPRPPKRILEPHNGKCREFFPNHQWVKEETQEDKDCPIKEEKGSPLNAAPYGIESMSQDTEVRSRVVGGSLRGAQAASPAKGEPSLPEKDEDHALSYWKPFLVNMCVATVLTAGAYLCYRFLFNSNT

O.O.O.O.O.O.O.O.O.O=C([O-])[C@@H]1[O][Sb]2([O-])([O][Sb]34([OH])[O][C@H]([C@H](O)CO)[C@H]([O]3)[C@H](C(=O)[O-])[O]4)[O][C@H]([C@H](O)CO)[C@@H]1[O]2.[Na+].[Na+].[Na+] [sodium stibogluconate]
numbers of tumor-infiltrating T cells or NK cells [1]: little effect
inhibition of PTP1B activity (PTP1B): only modestly effective
effect on WM35 melanoma cell line (WM35 cells): minimally affected
clinical tolerability at therapeutic dosages ([2]; human, in vivo): well tolerated
serum levels ([2]; standard dosage 10-20 mg/kg/day): ≥ 10000 ng/mL
Annexin V staining of NB4 cells (NB4 cells [3]; 250 μg/ml for 6 days): stained positive by Annexin V
cell cycle distribution of NB4 cells (NB4 cells [3]; 3 days, sodium stibogluconate 250 μg/ml, ATRA 1 μM): significant increase of cells at S phase
reversal of NB4 differentiation after drug removal (NB4 cells [4]): not reversed
GM-CSF-induced proliferation of TF-1 cells (TF-1 cells; 50 μg/ml, GM-CSF 5-40 ng/ml): augmented
effect on GM-CSF-induced cell growth (TF-1 cells; low doses 12.5-50 μg/ml): no negative effect
histology of major organs (DU145 tumors): unremarkable
survival of mice (DU145 tumors): survived until the end of the study

— patent US20080089860A1, “Therapeutic compositions and methods useful in treating cancer” (priority 2006, published 2008)
